The results in this text go back to ChEMBL document CHEMBL1151382, “A pharmacological study of two bisbenzylisoquinoline alkaloids, thalistyline and obamegine” (J Nat Prod, 1982).

Activity calls are given as the source filed them. The calls are words filed in the database; no cut-off is given here.

Series [1] in a line: Blockade of neuromuscular transmission activity in albino Sprague-Dawley rat hemidiaphragm assessed as inhibition of electrically-stimulated phrenic nerve contraction. In kind it is functional, tissue-based, Diaphragm.
For a further series, the species on record is Oryctolagus cuniculus. The experiment in a line: Antagonist activity at alpha adrenergic receptor in rabbit aortic strips assessed as decrease in of phenylephrine-induced contraction at 10^-4 M. It counts as functional.
A short description of series [2]: Antagonist activity at alpha adrenergic receptor in rabbit aortic strips assessed as decrease in of phenylephrine-induced contraction at 3 X 10^-4 M. It counts as functional, Oryctolagus cuniculus. Details: scale not given: the % may be the effect or the level left.
Series [3] can be described thus: Antagonist activity at alpha adrenergic receptor in rabbit aortic strips assessed as inhibition of phenylephrine-induced contraction. It counts as functional, Oryctolagus cuniculus.
Series [4] deals with Canis familiaris. The experiment in a line: Toxicity in dog at 0.5 to 4 mg/kg, iv. In kind it is organism-based, Canis lupus familiaris. To be noted: in vivo. Details: dose 0.5-4 mg/kg, route intravenous.
Series [5] has as its system Canis familiaris. Nature of the series: Cardiovascular effect in anesthetized normotensive iv dosed dog assessed as decrease in mean arterial pressure. In kind it is functional, organism-based. To be noted: Canis lupus familiaris; Artery.
The test system of series [6] is Canis familiaris. Nature of the series: Cardiovascular effect in anesthetized normotensive iv dosed dog assessed as decrease in heart rate. In kind it is functional, Canis lupus familiaris.
For series [7], the system named is Canis familiaris. The experiment in a line: Toxicity in iv dosed dog assessed as inhibition of respiration. In kind it is organism-based, Canis lupus familiaris. Particulars: in vivo.
For series [8], the system named is Canis familiaris. The experiment in a line: Cardiovascular effect in anesthetized normotensive dog assessed as decrease in mean arterial pressure at 2 mg/kg, iv upto 22 mins. In kind it is functional, Canis lupus familiaris, Artery.
The test system of series [9] is Canis familiaris. Nature of the series: Cardiovascular effect in anesthetized normotensive dog assessed as reduction in mean arterial pressure at 2 mg/kg, iv dosed twice with second dose being administered 2.5 hrs interval after the first dose. In kind it is functional, Canis lupus familiaris, Artery.
The species entered for another series is Rattus norvegicus. Nature of the series: Blockade of neuromuscular transmission activity in albino Sprague-Dawley rat hemidiaphragm assessed as inhibition of electrically-stimulated phrenic nerve contraction at 1 to 30 X 10^-6 M. In kind it is functional, tissue-based. To be noted: Diaphragm.
The subject of series [10] is Canis familiaris. Nature of the series: Cardiovascular effect in anesthetized normotensive dog assessed as rise in heart rate at 0.1 mg/kg, iv. It counts as functional, Canis lupus familiaris.
The subject of series [11] is Canis familiaris. Nature of the series: Toxicity in dog at > 0.4 mg/kg, iv. Also noted: dose 0.4 mg/kg, route intravenous. To be noted: in vivo. In kind it is organism-based, Canis lupus familiaris.
Series [12] relates to Canis familiaris. Nature of the series: Cardiovascular effect in anesthetized normotensive dog assessed as decrease in mean arterial pressure at 0.1 to 0.4 mg/kg, iv. To be noted: Canis lupus familiaris, Artery. In kind it is functional, organism-based.
The test system of series [13] is Canis familiaris. Nature of the series: Toxicity in dog assessed as inhibition of respiration at > 0.4 mg/kg, iv. Also noted: dose 0.4 mg/kg, route intravenous. Particulars: in vivo. It counts as organism-based, Canis lupus familiaris.
A short description of series [14]: Protection of albino Sprague-Dawley rat hemidiaphragm from alpha-bungarotoxin blockade assessed as recovery of nerve-stimulated muscle contraction at 3 X 10^-5 M. It counts as functional, Muscle tissue.
For series [15], the system named is Canis familiaris. Nature of the series: Cardiovascular effect in anesthetized normotensive dog assessed as fall in heart rate at 0.1 to 0.4 mg/kg, iv. In kind it is functional, Canis lupus familiaris. Particulars: dose mg/kg 0.1-0.4.
The nature of series [16]: Blockade of neuromuscular transmission activity in albino Sprague-Dawley rat hemidiaphragm assessed as inhibition of electrically-stimulated phrenic nerve contraction at 10^-5 M relative to control. In kind it is functional, Diaphragm. Also noted: scale not given: the % may be the effect or the level left.
Series [17] in a line: Blockade of neuromuscular transmission activity in albino Sprague-Dawley rat hemidiaphragm assessed as inhibition of electrically-stimulated phrenic nerve contraction at 10^-5 M relative to control in presence of Eserine. It counts as functional, Diaphragm. Also noted: scale not given: the % may be the effect or the level left.

By IC50 is commonly meant the concentration at which inhibition is half-maximal. Regarding `COc1cc2c3cc1Oc1cc(ccc1O)C[C@@H]1c4c(cc(OC)c(O)c4Oc4ccc(cc4)C[C@@H]3N(C)CC2)CC[N+]1(C)C`, the 50% inhibitory concentration (IC50) in [1] was 1420 nM.

As a reminder, the pKb is the negative decadic logarithm of the Kb, by convention in mol/L. In the case of `COc1cc2c3cc1Oc1c(O)c(OC)cc4c1[C@@H](Cc1ccc(O)c(c1)Oc1ccc(cc1)C[C@@H]3N(C)CC2)N(C)CC4` [OBAMEGINE], in the series listed under Oryctolagus cuniculus, the result was Active. The Activity in series [2] was 30%; in the series on Canis familiaris [4] it was “Non-toxic”; with Canis familiaris [5] it was “Dose-dependent effect”; with Canis familiaris [6] it was 20 bpm; in the series on Canis familiaris [7], “Non-toxic”; in the series with Canis familiaris [8] it was 61 mmHg. The Activity in the series with Canis familiaris [9] is recorded as 11 mmHg. Further, in [3], the pKb was determined as 5.3. Further, the result in the series listed under Rattus norvegicus was inactive.

Consider `COc1ccc(C[C@H]2c3cc(OC)c(OC)c(OC)c3CC[N+]2(C)C)cc1Oc1ccc(C[C@H]2c3cc(OC)c4c(c3CCN2C)OCO4)cc1.[Cl-]` [THALISTYLINE], for which the Activity in the series on Canis familiaris [10] is 20 bpm; in the series on Canis familiaris [11] it was “Toxic”; in the series with Canis familiaris [13] it was “Toxic”; in series [14], 65.8%; in the series on Canis familiaris [15], 20 bpm; in series [16], 24.7%. The Activity in series [17] came to 63.8%. For the same compound, the result with Canis familiaris [12] was Active. The IC50 in series [1] stood at 4980 nM. In addition, the Kb in series [3] (Oryctolagus cuniculus, read-out: pA2 (converted)) is 468 nM.
